Measurements taken from publication PMC8815882, “Screening the pandemic response box identified benzimidazole carbamates, Olorofim and ravuconazole as promising drug candidates for the treatment of eumycetoma” (PLoS Neglected Tropical Diseases, 2022).
Where two headings read alike, the source gives them in different places.

Legend:
[1] = test system: M. mycetomatis MM55; test: IC50 determination, 2-fold dilution series 16 to 0.03125 μM; assay type: cell-based, Madurella mycetomatis; conditions: for IC50 / IC90: Madurella mycetomatis
[2] = test system: M. mycetomatis genome strain MM55; test: CLSI M38-A2 based in vitro susceptibility screening (XTT or resazurin), growth at fixed concentration; assay type: cell-based, Madurella mycetomatis; conditions: for Inhibits growth of Madurella mycetomatis at 25 μM: selected if >75% (resazurin) or >80% (XTT) fungal growth inhibited
[3] = test system: F. senegalensis strain CBS132257; test: CLSI M38-A2 based in vitro susceptibility screening at 25 μM; assay type: cell-based, Falciformispora senegalensis; conditions: selected if >75% (resazurin) or >80% (XTT) fungal growth inhibited
[4] = test system: Me. romeroi strain CBS128765; test: as above; assay type: cell-based, Medicopsis romeroi; conditions: selected if >75% (resazurin) or >80% (XTT) fungal growth inhibited
[5] = test system: M. pseudomycetomatis strain Mex2A; test: as above; assay type: cell-based, Madurella pseudomycetomatis; conditions: selected if >75% (resazurin) or >80% (XTT) fungal growth inhibited
[6] = test system: M. tropicana strain CBS206.47; test: as above; assay type: cell-based, Madurella tropicana; conditions: selected if >75% (resazurin) or >80% (XTT) fungal growth inhibited
[7] = test system: M. mycetomatis; test: Drug static or cidal; assay type: cell-based, Madurella mycetomatis
Description: Supplement pntd.0010159.s001.xlsx, sheet "Pandemic Box Master sheet" | column: Drug static or cidal

[8] = MM55, replicate 1, read-out: IC50 1 um
[9] = MM55, replicate 1, read-out: IC90 1 um
[10] = MM55, replicate 2, read-out: IC50 2 um
[11] = MM55, replicate 2, read-out: IC90 2 um
[12] = MM55, replicate 3, read-out: IC50 3 um
[13] = MM55, replicate 3, read-out: IC90 3 um
[14] = Madurella mycetomatis, mean of three replicates, read-out: Percentage survival at 25um, 25 uM mean
[15] = Madurella mycetomatis, replicate A, read-out: Percentage survival at 25um, 25 um A
[16] = Madurella mycetomatis, replicate B, read-out: Percentage survival at 25um, 25 uM B
[17] = Madurella mycetomatis, replicate C, read-out: Percentage survival at 25um, 25 uM C
[18] = Madurella mycetomatis, 100 uM, mean of three replicates, read-out: Percentage survival at 100um, 100 uM mean
[19] = MM55, mean of replicates, read-out: IC50 mean
[20] = MM55, replicate 1, read-out: IC50 1
[21] = MM55, replicate 1, read-out: IC90 1
[22] = MM55, replicate 2, read-out: IC50 2
[23] = MM55, replicate 2, read-out: IC90 2
[24] = MM55, replicate 3, read-out: IC50 3
[25] = MM55, replicate 3, read-out: IC90 3
[26] = Madurella mycetomatis, mean of replicates, read-out: Percentage survival at 25um, 25 uM mean
[27] = Madurella mycetomatis, 100 uM, mean of replicates, read-out: Percentage survival at 100um, 100 uM mean
[28] = Madurella mycetomatis, 100 uM, replicate 1, read-out: Percentage survival at 100um, 100 uM A
[29] = Madurella mycetomatis, 100 uM, replicate 2, read-out: Percentage survival at 100um, 100 uM A
[30] = Madurella mycetomatis, 100 uM, replicate 3, read-out: Percentage survival at 100um, 100 uM A

Compound	IC50 [1, 8] [µM]	IC90 [1, 9] [µM]	IC50 [1, 10] [µM]	IC90 [1, 11] [µM]	IC50 [1, 12] [µM]	IC90 [1, 13] [µM]	Inhibits growth of Madurella mycetomatis at 25 μM [2]	activity at 25 µM [2, 14] [%]	activity at 25 µM [2, 15] [%]	activity at 25 µM [2, 16] [%]	activity at 25 µM [2, 17] [%]	activity at 100 µM [2, 18] [%]	Inhibits growth of Madurella pseudomycetomatis at 25 μM [5]	Inhibits growth of Madurella tropicana at 25 μM [6]	IC50 [1, 19] [µM]	IC50 [1, 20] [µM]	IC90 [1, 21] [µM]	IC50 [1, 22] [µM]	IC90 [1, 23] [µM]	Drug static or cidal [7]	further results
CCC(C)NCC(O)Cn1c2ccc(Cl)cc2c2cc(Cl)ccc21 (stereo not shown) [MMV1578570]	21.7	> 25	17.2	24.2	12.5	21.6	inhibit the growth	7.02	9.54	-1.08	12.6	3.38	inhibit the growth	inhibit the growth							Drug static or cidal [1]: Static; IC50 ([1]; MM55, mean of three replicates, read-out: IC50 mean): 17.1 µM; activity at 100 µM ([2]; Madurella mycetomatis, 100 uM, replicate 1, read-out: Percentage survival at 100um, 100 uM A (first replicate column)): 1.05%; Percent fungal survival at 100 µM ([2]; Madurella mycetomatis, 100 uM, replicate 2, read-out: Percentage survival at 100um, 100 uM A (second replicate column)): 3.75%; activity at 100 µM ([2]; Madurella mycetomatis, 100 uM, replicate 3, read-out: Percentage survival at 100um, 100 uM A (third replicate column)): 5.34%; Inhibits growth of Falciformispora senegalensis at 25 μM [3]: inhibit the growth; Inhibits growth of Medicopsis romeroi at 25 μM [4]: inhibit the growth
Cc1ccc(NC(=O)c2cc(Cl)ccc2O)cc1 [MMV1578897]									3.43	0.378	10.8				> 25	> 25	> 25	> 25	> 25	Static	IC90 ([1]; MM55, mean of replicates, read-out: IC90 mean): > 25 µM; IC50 [1, 24]: > 25 µM; IC90 [1, 25]: > 25 µM; activity at 25 µM [2, 26]: 4.86%; activity at 100 µM [2, 27]: 2.02%; activity at 100 µM [2, 28]: 2.19%; activity at 100 µM [2, 29]: 0.189%; activity at 100 µM [2, 30]: 3.69%
CN1CCN(Cc2ccc(-c3cnc4[nH]cc(-c5ccc6[nH]ccc6c5)c4c3)cc2)CC1 [MMV1580482]	17.4	> 25	15.3	22.8	14.6	22.2		2.87	0.0624	1.21	7.33	16.3			15.8					Static	activity at 100 µM ([2]; Madurella mycetomatis, 100 uM, first replicate column, read-out: Percentage survival at 100um, 100 uM A): 27.2%; activity at 100 µM ([2]; Madurella mycetomatis, 100 uM, second replicate column, read-out: Percentage survival at 100um, 100 uM A): 11.5%; activity at 100 µM ([2]; Madurella mycetomatis, 100 uM, third replicate column, read-out: Percentage survival at 100um, 100 uM A): 10.2%
O=C(Nc1nnc(-c2ccc(Cl)cc2)o1)c1ccc(F)cc1 [MMV1782140]									5.38	8.31	13.2				13.4	15.2	23.2	11.5	21.7	Cidal	IC50 [1, 24]: 13.5 µM; IC90 [1, 25]: > 25 µM; activity at 25 µM [2, 26]: 8.95%; activity at 100 µM [2, 27]: 2.78%; activity at 100 µM [2, 28]: -0.102%; activity at 100 µM [2, 29]: 3.75%; activity at 100 µM [2, 30]: 4.7%
OC(Cn1cncn1)(Cn1cncn1)c1ccc(F)cc1F [fluconazole]							not M. mycetomatis and M. tropicana						inhibit the growth	not M. mycetomatis and M. tropicana							
